Tests used:
Format in all cases: cell-based
[1] = system: SKBR3 (PI3Kα wild type) cells; experiment: CellTiter-Glo 2.0 luminescent cell viability assay, 72 hours, SKBR3 cells; conditions: Homo sapiens, SK-BR-3, 72 h, SKBR3 (PI3Kα wild type) cells, CellTiter-Glo, approximately 72 hours; read-out: SKBR3 (WT) Viability IC50
Outline: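 Viability measured via CTG luminescence following roughly 72 hours of compound exposure at 37° C. Dosing used a 10 um starting concentration diluted 1:4 over 10 points; percent-of-vehicle data fitted with a variable-slope four-parameter model for IC50.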

[2] = system: T47D (PI3Kα H1047R mutant) cells; experiment: Inhibition of pAKT formation, alphaLISA SureFire Ultra AKT 1/2/3 (pS473), T47D cells; conditions: Homo sapiens, T47D, T47D (PI3Kα H1047R mutant) cells; inhibition of pAKT (pS473) formation; approximately one hour or 24 hours treatment; read-out: T47D pAKT (H1047R mutant) IC50
Outline: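 AKT Ser473 phosphorylation was quantified by alphaLISA SureFire Ultra after roughly 1 h or 24 h compound exposure at 37 °C. Cells were T47D (12,000/well in HBSS), treated with a 10-point 1:4 series starting at 10.4 μM. Percent of control used alpelisib background and DMSO reference, and IC50 came from four-parameter logistic fitting.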

[3] = system: T47D (PI3Kα H1047R mutant) cells; experiment: CellTiter-Glo 2.0 luminescent cell viability assay, 72 hours, T47D cells; conditions: Homo sapiens, T47D, 72 h, T47D (PI3Kα H1047R mutant) cells, CellTiter-Glo, approximately 72 hours; read-out: T47D (H1047R mutant) Viability IC50
Outline: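 Viability was measured by CellTiter-Glo 2.0 luminescence after approximately 72 h of compound exposure at 37° C. Plating was 1000 cells per well the day before dosing, with ten 1:4 dilutions from a 10 µM top concentration. Values as percent of vehicle were fitted by variable-slope log(inhibitor) regression to give IC50.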

Structure (SMILES) | IC50 [1] | IC50 [2] | IC50 [3]
Cc1cc([C@@H](C)Nc2ccccc2C(=O)O)c2nc(N3CC4CC3C(F)(F)C4)c(C#N)c(=O)n2c1 (stereo partly drawn) [Example 10-88, 2-(((1R)-1-(3-cyano-2-(6,6-difluoro-2-azabicyclo[2.2.1]heptan-2-yl)-7-methyl-4-oxo-4H-pyrido[1,2-a]pyrimidin-9-yl)ethyl)amino)benzoic acid] | > 10000 nM | 3.77 nM | 80.3 nM
Cc1cc([C@@H](C)Nc2ccccc2C(=O)O)c2nc(N3C4CCCC3CC4)c(C#N)c(=O)n2c1 [Example 10-89, 2-(((1R)-1-(2-(8-azabicyclo[3.2.1]octan-8-yl)-3-cyano-7-methyl-4-oxo-4H-pyrido[1,2-a]pyrimidin-9-yl)ethyl)amino)benzoic acid] | > 10000 nM | 8.14 nM | 81.7 nM
Cc1cc([C@@H](C)Nc2ccccc2C(=O)O)c2nc(NC3CCC3)c(C#N)c(=O)n2c1 [Example 10-90, (R)-2-((1-(3-cyano-2-(cyclobutylamino)-7-methyl-4-oxo-4H-pyrido[1,2-a]pyrimidin-9-yl)ethyl)amino)benzoic acid] | > 10000 nM | 0.596 nM | 82.4 nM
Cc1cc([C@@H](C)Nc2ccccc2C(=O)O)c2nc(N3CCN(CC(F)F)CC3)c(C)c(=O)n2c1 [Example 10-91, (R)-2-((1-(2-(4-(2,2-difluoroethyl)piperazin-1-yl)-3,7-dimethyl-4-oxo-4H-pyrido[1,2-a]pyrimidin-9-yl)ethyl)amino)benzoic acid] | > 10000 nM | 2.55 nM | 82.5 nM
Cc1cc([C@@H](C)Nc2ccccc2C(=O)O)c2nc(N3Cc4ccc(F)cc4C3)c(C#N)c(=O)n2c1 [Example 10-92, (R)-2-((1-(3-cyano-2-(5-fluoroisoindolin-2-yl)-7-methyl-4-oxo-4H-pyrido[1,2-a]pyrimidin-9-yl)ethyl)amino)benzoic acid] | > 10000 nM | 1.71 nM | 82.8 nM
Cc1cc([C@@H](C)Nc2ccccc2C(=O)O)c2nc(N3CCN(c4ccc(F)cc4F)CC3)c(C)c(=O)n2c1 [Example 10-93, (R)-2-((1-(2-(4-(2,4-difluorophenyl)piperazin-1-yl)-3,7-dimethyl-4-oxo-4H-pyrido[1,2-a]pyrimidin-9-yl)ethyl)amino)benzoic acid] | > 10000 nM | 4.3 nM | 83.2 nM
Cc1cc([C@@H](C)Nc2ccccc2C(=O)O)c2nc(N3CCN(c4ccc(C#N)cc4F)CC3)c(C#N)c(=O)n2c1 [Example 10-94, (R)-2-((1-(3-cyano-2-(4-(4-cyano-2-fluorophenyl)piperazin-1-yl)-7-methyl-4-oxo-4H-pyrido[1,2-a]pyrimidin-9-yl)ethyl)amino)benzoic acid] | > 10000 nM | 2.02 nM | 83.6 nM
Cc1cc([C@@H](C)Nc2ccccc2C(=O)O)c2nc(N3CC4CCC3CC4)c(C#N)c(=O)n2c1 [Example 10-97, (R)-2-((1-(2-(2-azabicyclo[2.2.2]octan-2-yl)-3-cyano-7-methyl-4-oxo-4H-pyrido[1,2-a]pyrimidin-9-yl)ethyl)amino)benzoic acid] | > 10000 nM | 2.04 nM | 85.2 nM
Cc1cc([C@@H](C)Nc2ccccc2C(=O)O)c2nc(N3CCN(c4ccccc4)CC3)c(C#N)c(=O)n2c1 [Example 10-98, (R)-2-((1-(3-cyano-7-methyl-4-oxo-2-(4-phenylpiperazin-1-yl)-4H-pyrido[1,2-a]pyrimidin-9-yl)ethyl)amino)benzoic acid] | > 10000 nM | 2.12 nM | 85.8 nM
Cc1cc([C@@H](C)Nc2ccccc2C(=O)O)c2nc(N3CC4C(C3)C4(F)F)c(C#N)c(=O)n2c1 (stereo partly drawn) [Example 10-100, 2-(((1R)-1-(3-cyano-2-(6,6-difluoro-3-azabicyclo[3.1.0]hexan-3-yl)-7-methyl-4-oxo-4H-pyrido[1,2-a]pyrimidin-9-yl)ethyl)amino)benzoic acid] | > 10000 nM | 3.82 nM | 86.2 nM

Source: patent US20260078120A1, “SUBSTITUTED PYRIDOPYRIMIDINONES” (MIRATI THERAPEUTICS, INC., priority 2022, published 2026)
